Results taken from patent US20240150321A1, “PYRAZOLYLSULFONAMIDE COMPOUNDS AND THEIR USE IN THERAPY” (HOTSPOT THERAPEUTICS, INC., priority 2022, published 2024).
Like-named read-outs stand apart in the source and are kept apart here.

How the values were obtained:
Avi-tagged FL MALT-1 = Avi-tagged FL MALT-1 (Homo sapiens (Human), UniProt Q9UDY8); experiment: MALT-1 Fluorogenic Peptide Cleavage Assay (MALT1 inhibition assay); assay type: biochemical; conditions: Ac-LRSR-AMC peptide substrate, 30 min pre-incubation, 90 min reaction at room temperature
Avi-tagged FL MALT-1, sequence (Q9UDY8 whole entry): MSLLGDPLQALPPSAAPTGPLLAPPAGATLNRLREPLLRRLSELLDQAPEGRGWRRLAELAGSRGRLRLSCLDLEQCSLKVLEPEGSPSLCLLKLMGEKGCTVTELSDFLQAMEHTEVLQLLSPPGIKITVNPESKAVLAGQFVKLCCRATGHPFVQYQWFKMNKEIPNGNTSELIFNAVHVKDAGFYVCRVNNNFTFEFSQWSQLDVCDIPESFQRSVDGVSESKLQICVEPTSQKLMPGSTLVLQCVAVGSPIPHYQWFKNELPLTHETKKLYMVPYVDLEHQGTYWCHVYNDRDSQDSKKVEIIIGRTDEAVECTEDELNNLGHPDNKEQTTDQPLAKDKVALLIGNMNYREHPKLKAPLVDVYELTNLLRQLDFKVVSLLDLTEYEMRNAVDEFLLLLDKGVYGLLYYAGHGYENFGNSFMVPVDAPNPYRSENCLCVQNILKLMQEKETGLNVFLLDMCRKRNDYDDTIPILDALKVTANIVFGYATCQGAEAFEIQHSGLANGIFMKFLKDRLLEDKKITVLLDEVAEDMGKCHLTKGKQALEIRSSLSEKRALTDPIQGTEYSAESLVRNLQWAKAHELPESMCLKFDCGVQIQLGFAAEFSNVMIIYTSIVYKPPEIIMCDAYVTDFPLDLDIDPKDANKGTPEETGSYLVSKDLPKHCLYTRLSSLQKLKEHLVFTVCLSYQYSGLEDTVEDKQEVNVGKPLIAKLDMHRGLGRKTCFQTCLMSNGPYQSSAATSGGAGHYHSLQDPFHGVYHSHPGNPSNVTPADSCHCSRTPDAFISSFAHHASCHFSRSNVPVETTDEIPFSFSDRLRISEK
Procedure, shortened: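 Cleavage of Ac-LRSR-AMC, read as fluorescence at 342/441 nm after 90 min at room temperature, with substrate working stocks of 50 μM (Km) or 280 μM (10×Km). Enzyme, Avi-tagged full-length MALT-1 (40 nM stock), was first pre-incubated 30 min with compound in citrate/HEPES pH 6.89 buffer with TCEP, EDTA, CHAPS and 2% DMSO; IC50 fitted from normalised % inhibition.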

[1] = tested on: NF-kB reporter in Jurkat cells; experiment: NF-kB reporter assay in Jurkat cells stimulated with aCD3/aCD28/PMA; assay type: cell-based; conditions: read-out: NF-kB Reporter Assay IC50
Procedure, shortened: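 Luminescence (One-Glo) from the NF-kB reporter yielded IC50 values. Stimulation lasted 4 h at 37° C with aCD3, aCD28 and PMA (final 5, 5 and 0.03 […]), after 1 h compound pre-exposure of 25,000 Jurkat cells per well in serum-free RPMI.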

[2] = Homo sapiens, Jurkat cells, 1 hr compound pre-incubation, aCD3/aCD28/PMA stimulation 4 hr, One-Glo readout

Row | Compound | IC50 (Avi-tagged FL MALT-1) [nM] | IC50 [1, 2] [nM] | IC50 ([1]; Homo sapiens, Jurkat) [nM] | IC50 ([1]; Jurkat cells, 1 hr compound pre-incubation, aCD3/aCD28/PMA stimulation 4 hr, One-Glo readout) [nM]
1 | Cn1ncc2cccc(NS(=O)(=O)c3cnn(-c4cc(N5CC(C)(C#N)C5)ccn4)c3)c21 [Compound I-450, 1-(4-(3-cyano-3-methylazetidin-1-yl)pyridin-2-yl)-N-(1-methyl-1H-indazol-7-yl)-1H-pyrazole-4-sulfonamide] | > 2500 | < 400 |  | 
2 | COc1ccc2cnn(C)c2c1NS(=O)(=O)c1cnn(-c2cc(N3CC(C)(OC)C3)ccn2)c1 [Compound I-453] | > 2500 | 400 to 1000 |  | 
3 | COc1ccc2cnn(C)c2c1NS(=O)(=O)c1cnn(-c2cc(N3CC(C#N)C3)ccn2)c1 [Compound I-454] | > 2500 | 400 to 1000 |  | 
4 | COc1ccc2cnn(C)c2c1NS(=O)(=O)c1cnn(-c2cnn3c2COCCC3)c1 [Compound I-455, N-(6-methoxy-1-methylindazol-7-yl)-1-{4H,6H,7H,8H-pyrazolo[3,2-c][1,4]oxazepin-3-yl}pyrazole-4-sulfonamide] | > 2500 | 1000 to 2500 |  | 
5 | Cn1ncc2cccc(NS(=O)(=O)c3cnn(-c4cc(C5(C#N)CCC5)ccn4)c3)c21 [Compound I-456] | > 2500 | < 400 |  | 
6 | COc1ccc2cnn(C)c2c1NS(=O)(=O)c1cnn(-c2cc(C3(C#N)CCC3)ccn2)c1 [Compound I-457, 1-(4-(1-Cyanocyclobutyl)Pyridin-2-yl)-N-(6-Methoxy-1-Methyl-1H-Indazol-7-yl)-1H-Pyrazole-4-Sulfonamide] | 400 to 1000 | < 400 |  | 
7 | Cn1ncc2cccc(NS(=O)(=O)c3cnn(-c4cc(N5CC(C)(C(N)=O)C5)ccn4)c3)c21 [Compound I-458] | > 2500 | > 2500 |  | 
8 | COc1ccc2cnn(C)c2c1NS(=O)(=O)c1cnn(-c2cc(N3CC(C(N)=O)C3)ccn2)c1 [Compound I-459] | > 2500 | > 2500 |  | 
9 | Cn1ncc2cccc(NS(=O)(=O)c3cnn(-c4cc(N5CC(C#N)C5)ccn4)c3)c21 [Compound I-460] | > 2500 | < 400 |  | 
10 | COc1ccc2cnn(C)c2c1NS(=O)(=O)c1cnn(-c2cc(N3CC(C)(C#N)C3)ccn2)c1 [Compound I-461] | > 2500 | 400 to 1000 |  | 
11 | COc1ccc2cnn(C)c2c1NS(=O)(=O)c1cnn(-c2cc([C@H](C)N3CCCCC3)ccn2)c1 [Compound I-462, (S)—N-(6-Methoxy-1-Methyl-1H-Indazol-7-yl)-1-(4-(1-(Piperidin-1-yl)Ethyl)Pyridin-2-yl)-1H-Pyrazole-4-Sulfonamide] | > 2500 | < 400 |  | 
12 | COc1ccc2cnn(C)c2c1NS(=O)(=O)c1cnn(-c2cc([C@@H](C)N3CCCCC3)ccn2)c1 [Compound I-463] | > 2500 | 400 to 1000 |  | 
13 | Cn1ncc2cccc(NS(=O)(=O)c3cnn(-c4cnn5c4COCC5)c3)c21 [Compound I-464, N-(1-methylindazol-7-yl)-1-{4H,6H,7H-pyrazolo[3,2-c][1,4]oxazin-3-yl}pyrazole-4-sulfonamide] | > 2500 | 400 to 1000 |  | 
14 | Cn1ncc2cccc(NS(=O)(=O)c3cnn(-c4cnn5c4OCCC5)c3)c21 [Compound I-465, N-(1-methylindazol-7-yl)-1-{5H,6H,7H-pyrazolo[3,2-b][1,3]oxazin-3-yl}pyrazole-4-sulfonamide] | > 2500 | 1000 to 2500 |  | 
15 | CN1CCn2ncc(-n3cc(S(=O)(=O)Nc4cccc5cnn(C)c45)cn3)c2C1 [Compound I-466, 1-{5-methyl-4H,6H,7H-pyrazolo[1,5-a]pyrazin-3-yl}-N-(1-methylindazol-7-yl)pyrazole-4-sulfonamide] | > 2500 | > 2500 |  | 
16 | COc1ccc2cnn(C)c2c1NS(=O)(=O)c1cnn(-c2cnn3c2OCCC3)c1 [Compound I-467, N-(6-methoxy-1-methylindazol-7-yl)-1-{5H,6H,7H-pyrazolo[3,2-b] [1,3]oxazin-3-yl} pyrazole-4-sulfonamide] | > 2500 | > 2500 |  | 
17 | COc1ccc2cnn(C)c2c1NS(=O)(=O)c1cnn(-c2cnn3c2CN(C)CC3)c1 [Compound I-468, N-(6-methoxy-1-methylindazol-7-yl)-1-{5-methyl-4H,6H,7H-pyrazolo[1,5-a]pyrazin-3-yl}pyrazole-4-sulfonamide] | > 2500 | > 2500 |  | 
18 | Cn1ncc2cccc(NS(=O)(=O)c3cnn(-c4cc(C5(C#N)CC5)ccn4)c3)c21 [Compound I-469, 1-(4-(1-cyanocyclopropyl)pyridin-2-yl)-N-(1-methyl-1H-indazol-7-yl)-1H-pyrazole-4-sulfonamide] | > 2500 |  | < 400 | 

Row | Compound | IC50 (Avi-tagged FL MALT-1) [nM] | IC50 [1, 2] [nM] | IC50 ([1]; Homo sapiens, Jurkat) [nM] | IC50 ([1]; Jurkat cells, 1 hr compound pre-incubation, aCD3/aCD28/PMA stimulation 4 hr, One-Glo readout) [nM]
19 | COc1ccc2cnn(C)c2c1NS(=O)(=O)c1cnn(-c2cc(C3(C#N)CC3)ccn2)c1 [Compound I-470, 1-[4-(1-cyanocyclopropyl)pyridin-2-yl]-N-(6-methoxy-1-methylindazol-7-yl)pyrazole-4-sulfonamide] | 400 to 1000 |  | < 400 | 
20 | Cn1ncc2cccc(NS(=O)(=O)c3cnn(-c4cc(N5CC(C(N)=O)C5)ccn4)c3)c21 [Compound I-471, 1-(2-(4-(N-(1-methyl-1H-indazol-7-yl)sulfamoyl)-1H-pyrazol-1-yl)pyridin-4-yl)azetidine-3-carboxamide] | > 2500 | > 2500 |  | 
21 | COc1ccc2cnn(C)c2c1NS(=O)(=O)c1cnn(-c2cc(N3CC(C)(C(N)=O)C3)ccn2)c1 [Compound I-472] | > 2500 | 1000 to 2500 |  | 
22 | Cn1ncc2cccc(NS(=O)(=O)c3cnn(-c4cnc5n4CCOC5)c3)c21 [Compound I-473, 1-(5,6-dihydro-8H-imidazo[2,1-c][1,4]oxazin-3-yl)-N-(1-methyl-1H-indazol-7-yl)-1H-pyrazole-4-sulfonamide] | > 2500 | > 2500 |  | 
23 | COc1ccc2cnn(C)c2c1NS(=O)(=O)c1cnn(-c2cnn3c2COCC3)c1 [Compound I-474, N-(6-methoxy-1-methylindazol-7-yl)-1-{4H,6H,7H-pyrazolo[3,2-c][1,4]oxazin-3-yl}pyrazole-4-sulfonamide] | 1000 to 2500 | 400 to 1000 |  | 
24 | COc1ccc2cnn(C)c2c1NS(=O)(=O)c1cnn(-c2cnc3n2CCOC3)c1 [Compound I-475, 1-(5,6-dihydro-8H-imidazo[2,1-c][1,4]oxazin-3-yl)-N-(6-methoxy-1-methyl-1H-indazol-7-yl)-1H-pyrazole-4-sulfonamide] | > 2500 | > 2500 |  | 
25 | [2H]C([2H])([2H])Oc1ccc2cnn(C([2H])([2H])[2H])c2c1NS(=O)(=O)c1cnn(-c2cc(C(F)(F)F)ccn2)c1 [Compound I-476, N-(6-(methoxy-d3)-1-(methyl-d3)-1H-indazol-7-yl)-1-(4-(trifluoromethyl)pyridin-2-yl)-1H-pyrazole-4-sulfonamide] | ≤ 400 | < 400 |  | 
26 | Cn1ncc2cccc(NS(=O)(=O)c3cnn(-c4cc(C5(O)CC(C)(C)C5)ccn4)c3)c21 [Compound I-477, 1-(4-(1-hydroxy-3,3-dimethylcyclobutyl)pyridin-2-yl)-N-(1-methyl-1H-indazol-7-yl)-1H-pyrazole-4-sulfonamide] | > 2500 | < 400 |  | 
27 | COC1(c2ccnc(-n3cc(S(=O)(=O)Nc4cccc5cnn(C)c45)cn3)c2)CC(C)(C)C1 [Compound I-478, 1-(4-(1-methoxy-3,3-dimethylcyclobutyl)pyridin-2-yl)-N-(1-methyl-1H-indazol-7-yl)-1H-pyrazole-4-sulfonamide] | > 2500 | < 400 |  | 
28 | COc1ccc2cnn(C)c2c1NS(=O)(=O)c1cnn(-c2cc(C3(O)CC(C)(C)C3)ccn2)c1 [Compound I-479] | > 2500 | < 400 |  | 
29 | COc1ccc2cnn(C)c2c1NS(=O)(=O)c1cnn(-c2cc(C3(OC)CC(C)(C)C3)ccn2)c1 [Compound I-480] | > 2500 | < 400 |  | 
30 | COCC(C)(C)c1ccnc(-n2cc(S(=O)(=O)Nc3cccc4cnn(C)c34)cn2)c1 [Compound I-481, 1-(4-(1-methoxy-2-methylpropan-2-yl)pyridin-2-yl)-N-(1-methyl-1H-indazol-7-yl)-1H-pyrazole-4-sulfonamide] | > 2500 | < 400 |  | 
31 | COCC(C)(C)c1ccnc(-n2cc(S(=O)(=O)Nc3c(OC)ccc4cnn(C)c34)cn2)c1 [Compound I-482, N-(6-methoxy-1-methyl-1H-indazol-7-yl)-1-(4-(1-methoxy-2-methylpropan-2-yl)pyridin-2-yl)-1H-pyrazole-4-sulfonamide] | 400 to 1000 | < 400 |  | 
32 | Cn1ncc2cccc(NS(=O)(=O)c3cnn(-c4cc(C5(C#N)COC5)ccn4)c3)c21 [Compound I-483] | > 2500 | < 400 |  | 
33 | COC1(c2ccnc(-n3cc(S(=O)(=O)Nc4cccc5cnn(C)c45)cn3)c2)CC2(CC2)C1 [Compound I-484, 1-(4-(5-methoxyspiro[2.3]hexan-5-yl)pyridin-2-yl)-N-(1-methyl-1H-indazol-7-yl)-1H-pyrazole-4-sulfonamide] | > 2500 | < 400 |  | 
34 | COc1ccc2cnn(C)c2c1NS(=O)(=O)c1cnn(-c2cc(C3(OC)CC4(CC4)C3)ccn2)c1 [Compound I-485, N-(6-methoxy-1-methylindazol-7-yl)-1-(4-{5-methoxyspiro [2.3]hexan-5-yl}pyridin-2-yl) pyrazole-4-sulfonamide] | 400 to 1000 | < 400 |  | 
35 | N-(6-Methoxy-1-Methyl-1H-Indazol-7-yl)-1-(4-(Trifluoromethyl)Pyridin-2-yl)-1H-Pyrazole-4-Sulfonamide [Compound I-5] | ≤ 400 |  |  | < 400
